Where two headings read alike, the source gives them in different places.
What was measured:
[1] = tested on: Key Broadleaf Weed and Crop Species; test: Post-emergent Test II herbicidal activity (Table 5); type: in vivo; settings: post-emergence, 336 h, 14 days after application; for pest or weed control at 70 g/ha: application rate 70 g ai/ha; for pest or weed control at 140 g/ha: application rate 140 g ai/ha
In short: (§1)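 Visual injury ratings (0 = no injury, 100 = complete kill) were taken 14 d after treatment, relative to untreated plants. Seedlings at the first–second true leaf stage received overhead spray at 187 L/ha; the highest rate was serially diluted to ½×, ¼×, ⅛× and 1/16×.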

[2] = tested on: Key Grass and Sedge Weeds as well as Grass Crops; test: Post-emergent Test II herbicidal activity (Table 6); type: in vivo; settings: post-emergence, 336 h; for pest or weed control at 70 g/ha: 70 g ai/ha; for pest or weed control at 140 g/ha: 140 g ai/ha
In short: as §1

[3] = ABUTH: velvetleaf (Abutilon theophrasti), read-out: Visual Growth Reduction (%) 14 Days After Application, ABUTH
[4] = AMARE: redroot pigweed (Amaranthus retroflexus), read-out: Visual Growth Reduction (%) 14 Days After Application, AMARE
[5] = BRSNN: oilseed-rape, canola (Brassica napus), read-out: Visual Growth Reduction (%) 14 Days After Application, BRSNN
[6] = CHEAL: lambsquarters (Chenopodium album), read-out: Visual Growth Reduction (%) 14 Days After Application, CHEAL
[7] = EPHHL: wild poinsettia (Euphorbia heterophylla), read-out: Visual Growth Reduction (%) 14 Days After Application, EPHHL
[8] = HELAN: sunflower (Helianthus annuus), read-out: Visual Growth Reduction (%) 14 Days After Application, HELAN
[9] = VIOTR: wild pansy (Viola tricolor), read-out: Visual Growth Reduction (%) 14 Days After Application, VIOTR
[10] = CYPES: yellow nutsedge (Cyperus esculentus), read-out: Visual Growth Reduction (%) 14 Days After Application, CYPES
[11] = DIGSA: crabgrass (Digitaria sanguinalis), read-out: Visual Growth Reduction (%) 14 Days After Application, DIGSA
[12] = ECHCG: barnyardgrass (Echinochloa crus-galli), read-out: Visual Growth Reduction (%) 14 Days After Application, ECHCG
[13] = ORYSA: rice (Oryza sativa), crop, read-out: Visual Growth Reduction (%) 14 Days After Application, ORYSA
[14] = SETFA: giant foxtail (Setaria faberi), read-out: Visual Growth Reduction (%) 14 Days After Application, SETFA
[15] = SORVU: grain sorghum (Sorghum vulgare), read-out: Visual Growth Reduction (%) 14 Days After Application, SORVU
[16] = TRZSS (wheat, Triticum aestivum), crop, read-out: Visual Growth Reduction (%) 14 Days After Application, TRZSS
[17] = ZEAMX: maize, corn (Zea mays), crop, read-out: Visual Growth Reduction (%) 14 Days After Application, ZEAMX

Nc1cc(-c2ccc(I)cc2)nc(C(=O)O)c1Cl [Compound 4]
pest or weed control at 70 g/ha [1, 3]: 95 to 100%
pest or weed control at 140 g/ha [1, 3]: 95 to 100%
pest or weed control at 70 g/ha [1, 4]: 85 to 94%
pest or weed control at 140 g/ha [1, 4]: 85 to 94%
pest or weed control at 70 g/ha [1, 5]: 95 to 100%
pest or weed control at 140 g/ha [1, 5]: 95 to 100%
pest or weed control at 70 g/ha [1, 6]: 95 to 100%
pest or weed control at 140 g/ha [1, 6]: 95 to 100%
pest or weed control at 70 g/ha [1, 7]: 95 to 100%
pest or weed control at 140 g/ha [1, 7]: 95 to 100%
pest or weed control at 70 g/ha [1, 8]: 75 to 84%
pest or weed control at 140 g/ha [1, 8]: 85 to 94%
pest or weed control at 70 g/ha [1, 9]: 0 to 29%
pest or weed control at 140 g/ha [1, 9]: 0 to 29%
pest or weed control at 70 g/ha [2, 10]: 45 to 59%
pest or weed control at 140 g/ha [2, 10]: 95 to 100%
pest or weed control at 70 g/ha [2, 11]: 60 to 74%
pest or weed control at 140 g/ha [2, 11]: 75 to 84%
pest or weed control at 70 g/ha [2, 12]: 75 to 84%
pest or weed control at 140 g/ha [2, 12]: 85 to 94%
pest or weed control at 70 g/ha [2, 13]: 0 to 29%
pest or weed control at 140 g/ha [2, 13]: 0 to 29%
pest or weed control at 70 g/ha [2, 14]: 60 to 74%
pest or weed control at 140 g/ha [2, 14]: 60 to 74%
pest or weed control at 70 g/ha [2, 15]: 75 to 84%
pest or weed control at 140 g/ha [2, 15]: 75 to 84%
pest or weed control at 70 g/ha [2, 16]: 75 to 84%
pest or weed control at 140 g/ha [2, 16]: 75 to 84%
pest or weed control at 70 g/ha [2, 17]: 0 to 29%
pest or weed control at 140 g/ha [2, 17]: 0 to 29%

COC(=O)c1nc(-c2ccc(Br)cc2)cc(N)c1Cl [Compound 67]
pest or weed control at 70 g/ha [1, 3]: 95 to 100%
pest or weed control at 140 g/ha [1, 3]: 95 to 100%
pest or weed control at 70 g/ha [1, 4]: 95 to 100%
pest or weed control at 140 g/ha [1, 4]: 95 to 100%
pest or weed control at 70 g/ha [1, 5]: 0 to 29%
pest or weed control at 140 g/ha [1, 5]: 60 to 74%
pest or weed control at 70 g/ha [1, 6]: 95 to 100%
pest or weed control at 140 g/ha [1, 6]: 95 to 100%
pest or weed control at 70 g/ha [1, 7]: 95 to 100%
pest or weed control at 140 g/ha [1, 7]: 95 to 100%
pest or weed control at 70 g/ha [1, 8]: 85 to 94%
pest or weed control at 140 g/ha [1, 8]: 95 to 100%
pest or weed control at 70 g/ha [1, 9]: 0 to 29%
pest or weed control at 140 g/ha [1, 9]: 0 to 29%
pest or weed control at 70 g/ha [2, 10]: 95 to 100%
pest or weed control at 140 g/ha [2, 10]: 95 to 100%
pest or weed control at 70 g/ha [2, 11]: 60 to 74%
pest or weed control at 140 g/ha [2, 11]: 75 to 84%
pest or weed control at 70 g/ha [2, 12]: 85 to 94%
pest or weed control at 140 g/ha [2, 12]: 95 to 100%
pest or weed control at 70 g/ha [2, 13]: 0 to 29%
pest or weed control at 140 g/ha [2, 13]: 0 to 29%
pest or weed control at 70 g/ha [2, 14]: 0 to 29%
pest or weed control at 140 g/ha [2, 14]: 0 to 29%
pest or weed control at 70 g/ha [2, 15]: 85 to 94%
pest or weed control at 140 g/ha [2, 15]: 85 to 94%
pest or weed control at 70 g/ha [2, 16]: 0 to 29%
pest or weed control at 140 g/ha [2, 16]: 0 to 29%
pest or weed control at 70 g/ha [2, 17]: 0 to 29%
pest or weed control at 140 g/ha [2, 17]: 45 to 59%

COC(=O)c1nc(-c2ccc(OC(F)F)c(F)c2F)c(F)c(N)c1Cl [Compound 103]
pest or weed control at 70 g/ha [1, 3]: 45 to 59%
pest or weed control at 140 g/ha [1, 3]: 45 to 59%
pest or weed control at 70 g/ha [1, 4]: 0 to 29%
pest or weed control at 140 g/ha [1, 4]: 0 to 29%
pest or weed control at 70 g/ha [1, 5]: 0 to 29%
pest or weed control at 140 g/ha [1, 5]: 30 to 44%
pest or weed control at 70 g/ha [1, 6]: 0 to 29%
pest or weed control at 140 g/ha [1, 6]: 85 to 94%
pest or weed control at 70 g/ha [1, 7]: 0 to 29%
pest or weed control at 140 g/ha [1, 7]: 0 to 29%
pest or weed control at 70 g/ha [1, 8]: 75 to 84%
pest or weed control at 140 g/ha [1, 8]: 75 to 84%
pest or weed control at 70 g/ha [1, 9]: 0 to 29%
pest or weed control at 140 g/ha [1, 9]: 0 to 29%
pest or weed control at 70 g/ha [2, 10]: 0 to 29%
pest or weed control at 140 g/ha [2, 10]: 45 to 59%
pest or weed control at 70 g/ha [2, 11]: 0 to 29%
pest or weed control at 140 g/ha [2, 11]: 0 to 29%
pest or weed control at 70 g/ha [2, 12]: 0 to 29%
pest or weed control at 140 g/ha [2, 12]: 0 to 29%
pest or weed control at 70 g/ha [2, 13]: 0 to 29%
pest or weed control at 140 g/ha [2, 13]: 0 to 29%
pest or weed control at 70 g/ha [2, 14]: 0 to 29%
pest or weed control at 140 g/ha [2, 14]: 0 to 29%
pest or weed control at 70 g/ha [2, 15]: 0 to 29%
pest or weed control at 140 g/ha [2, 15]: 0 to 29%
pest or weed control at 70 g/ha [2, 16]: 0 to 29%
pest or weed control at 140 g/ha [2, 16]: 0 to 29%
pest or weed control at 70 g/ha [2, 17]: 0 to 29%
pest or weed control at 140 g/ha [2, 17]: 0 to 29%

— US9113629B2, “4-amino-6-(4-substituted-phenyl)-picolinates and 6-amino-2-(4-substituted-phenyl)-pyrimidine-4-carboxylates and their use as herbicides” (DOW AGROSCIENCES LLC, priority 2013, dated 2015)
